Activity data for 2 molecules are collected here from ChEMBL document CHEMBL5625277, “Systematical mutational analysis of teriparatide on anti-osteoporosis activity by alanine scanning” (Bioorg Med Chem Lett, 2024).

Active and inactive are the calls of the source. The rule behind the calls is not given here.

A short description of data set [1]: Cytotoxicity in pre-osteoblasts (unknown origin) assessed as cell death upto 5 uM by CCK8 assay. Format: toxicity, cell-based. The conditions noted are these: pre-osteoblast.
For another data set, the system named is Skull progenitor cell. Briefly: Induction of osteoblast differentiation in mouse skull progenitor cells assessed as increase in purple-stained ALP-positive cells at 100 nM measured after 4 days by imaging analysis. In kind it is functional, cell-based. The conditions noted are these: time 4.0 day.
A further data set relates to Calvarial osteoblast. Briefly: Induction of mineralization in osteoblast assessed as formation of calcium nodules at 50 to 100 nM measured after 14 days by Alizarin Red S staining based analysis. The conditions noted are these: dose 50-100 nM, time 14.0 day. Format: functional, cell-based.

`CC[C@H](C)[C@H](NC(=O)[C@H](CCC(=O)O)NC(=O)[C@H](CO)NC(=O)[C@@H](NC(=O)[C@H](CO)NC(C)=O)C(C)C)C(=O)N[C@@H](CCC(N)=O)C(=O)N[C@@H](CC(C)C)C(=O)N[C@@H](CCSC)C(=O)N[C@@H](Cc1cnc[nH]1)C(=O)N[C@@H](CC(N)=O)C(=O)N[C@@H](CC(C)C)C(=O)NCC(=O)N[C@@H](C)C(=O)N[C@@H](Cc1cnc[nH]1)C(=O)N[C@@H](CC(C)C)C(=O)N[C@@H](CC(N)=O)C(=O)N[C@@H](CO)C(=O)N[C@@H](CCSC)C(=O)N[C@@H](CCC(=O)O)C(=O)N[C@@H](CCCNC(=N)N)C(=O)N[C@H](C(=O)N[C@@H](CCC(=O)O)C(=O)N[C@@H](Cc1c[nH]c2ccccc12)C(=O)N[C@@H](CC(C)C)C(=O)N[C@@H](CCCNC(=N)N)C(=O)N[C@@H](CCCCN)C(=O)N[C@@H](CCCCN)C(=O)N[C@@H](CC(C)C)C(=O)N[C@@H](CCC(N)=O)C(=O)N[C@@H](CC(=O)O)C(=O)N[C@H](C(=O)N[C@@H](Cc1cnc[nH]1)C(=O)N[C@@H](CC(N)=O)C(=O)N[C@@H](Cc1ccccc1)C(N)=O)C(C)C)C(C)C`: the Activity result in data set [1] was “Non-Toxic”. Moreover, the result in the data set with Skull progenitor cell and in the data set with Calvarial osteoblast was Active.

For the molecule `CC[C@H](C)[C@H](NC(=O)[C@H](CCC(=O)O)NC(=O)[C@H](CO)NC(=O)[C@@H](NC(=O)[C@H](CO)NC(C)=O)C(C)C)C(=O)N[C@@H](CCC(N)=O)C(=O)N[C@@H](CC(C)C)C(=O)N[C@@H](CCSC)C(=O)N[C@@H](Cc1cnc[nH]1)C(=O)N[C@@H](CC(N)=O)C(=O)N[C@@H](CC(C)C)C(=O)NCC(=O)N[C@@H](CCCCN)C(=O)N[C@@H](Cc1cnc[nH]1)C(=O)N[C@@H](CC(C)C)C(=O)N[C@@H](CC(N)=O)C(=O)N[C@@H](CO)C(=O)N[C@@H](CCSC)C(=O)N[C@@H](CCC(=O)O)C(=O)N[C@@H](CCCNC(=N)N)C(=O)N[C@H](C(=O)N[C@@H](CCC(=O)O)C(=O)N[C@@H](Cc1c[nH]c2ccccc12)C(=O)N[C@@H](CC(C)C)C(=O)N[C@@H](CCCNC(=N)N)C(=O)N[C@@H](CCCCN)C(=O)N[C@@H](CCCCN)C(=O)N[C@@H](CC(C)C)C(=O)N[C@@H](CCC(N)=O)C(=O)N[C@@H](C)C(=O)N[C@H](C(=O)N[C@@H](Cc1cnc[nH]1)C(=O)N[C@@H](CC(N)=O)C(=O)N[C@@H](Cc1ccccc1)C(N)=O)C(C)C)C(C)C`, the Activity result in data set [1] is “Non-Toxic”. Besides, the result with Skull progenitor cell and in the data set with Calvarial osteoblast was Active.
